Experimental data from ChEMBL document CHEMBL3259786, “Quinazolines: new horizons in anticonvulsant therapy” (Eur J Med Chem, 2014).

Legend:
[1] = tested on: Mus musculus; assay: Anticonvulsant activity in ip dosed mouse by MES test; format: functional
[2] = Toxicity in ip dosed mouse; format: organism-based; conditions: in vivo
[3] = tested on: Mus musculus; assay: Anticonvulsant activity in po dosed albino mouse measured after 60 mins by MES test; format: functional
[4] = Acute toxicity in po dosed mouse; format: organism-based; conditions: in vivo
[5] = species on record: Mus musculus; assay: Anticonvulsant activity in mouse by MES test; format: functional

| Compound | Activity [1] [%] | LD50 [2] [mg/kg] | PD50 [3] [µmol/kg] | LD50 [4] [mg/kg] | ED50 [5] [mg/kg] |
| --- | --- | --- | --- | --- | --- |
| CCSc1nc(=O)c2ccccc2[nH]1 | 60 | 1000 |  |  |  |
| O=C(CNc1ccc(Cl)cc1)Nn1c(COc2ccc(Cl)cc2Cl)nc2ccccc2c1=O |  |  | 200.53 | > 3000 |  |
| Nc1nnc2c3ccccc3nc(-c3ccccc3Br)n12 |  |  |  |  | 27.4 |
| c1ccc(CN(Cc2ccccc2)c2nc(N(Cc3ccccc3)Cc3ccccc3)c3ccccc3n2)cc1 | 50 | 400 |  |  |  |
